In EP3011959A1, “Quaternary ammonium compound for use as an inhibitor of protein kinase C alpha” (Santen SAS, priority 2014, dated 2016):

What was measured:
Assay type in all cases: cell-based
[1] = biological target: PKC beta 1 (Homo sapiens, UniProt P05771); test: Cellular assay of protein kinase C inhibition, PKC beta 1; set-up: key: *: IC 50 too high to be measured by apparatus
Description: (§1) CKC was tested on a cellular assay to evaluate the protein kinase C inhibition (PKC). Four subtypes of PKC are evaluated (α, β1, β2 and δ). Table 1. Cellular assay to evaluate the action of CKC on four subtypes of PKC.

[2] = biological target: PKC delta (Homo sapiens, UniProt Q05655); test: Cellular assay of protein kinase C inhibition, PKC delta; set-up: key: *: IC 50 too high to be measured by apparatus
Description: as §1

[3] = biological target: PKC beta 2 (Homo sapiens, UniProt P05771); test: Cellular assay of protein kinase C inhibition, PKC beta 2; set-up: key: *: IC 50 too high to be measured by apparatus
Description: as §1

[4] = biological target: PKC alpha (Homo sapiens, UniProt P17252); test: Cellular assay of protein kinase C inhibition, PKC alpha; conditions: read-out: IC 50 PKC alpha
Description: as §1

Sequence of PKC beta 1 (P05771 whole entry): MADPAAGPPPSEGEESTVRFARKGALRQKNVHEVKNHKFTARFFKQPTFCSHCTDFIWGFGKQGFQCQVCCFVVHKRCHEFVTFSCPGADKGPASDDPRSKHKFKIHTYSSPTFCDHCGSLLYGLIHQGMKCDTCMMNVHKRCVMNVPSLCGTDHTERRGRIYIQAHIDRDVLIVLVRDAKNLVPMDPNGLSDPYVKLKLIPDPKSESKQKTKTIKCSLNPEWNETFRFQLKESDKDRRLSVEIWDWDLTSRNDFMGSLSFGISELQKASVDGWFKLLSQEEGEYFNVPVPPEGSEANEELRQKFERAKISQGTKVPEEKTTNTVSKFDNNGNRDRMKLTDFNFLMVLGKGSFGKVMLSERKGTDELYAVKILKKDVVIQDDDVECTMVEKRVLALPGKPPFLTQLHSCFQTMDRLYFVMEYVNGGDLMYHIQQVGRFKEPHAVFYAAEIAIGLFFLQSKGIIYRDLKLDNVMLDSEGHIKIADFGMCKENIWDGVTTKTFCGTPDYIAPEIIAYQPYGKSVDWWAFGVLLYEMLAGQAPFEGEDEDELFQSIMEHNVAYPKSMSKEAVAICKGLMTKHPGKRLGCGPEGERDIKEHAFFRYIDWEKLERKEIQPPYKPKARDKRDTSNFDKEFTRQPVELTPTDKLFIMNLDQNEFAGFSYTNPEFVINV
Sequence of PKC delta (Q05655 whole entry): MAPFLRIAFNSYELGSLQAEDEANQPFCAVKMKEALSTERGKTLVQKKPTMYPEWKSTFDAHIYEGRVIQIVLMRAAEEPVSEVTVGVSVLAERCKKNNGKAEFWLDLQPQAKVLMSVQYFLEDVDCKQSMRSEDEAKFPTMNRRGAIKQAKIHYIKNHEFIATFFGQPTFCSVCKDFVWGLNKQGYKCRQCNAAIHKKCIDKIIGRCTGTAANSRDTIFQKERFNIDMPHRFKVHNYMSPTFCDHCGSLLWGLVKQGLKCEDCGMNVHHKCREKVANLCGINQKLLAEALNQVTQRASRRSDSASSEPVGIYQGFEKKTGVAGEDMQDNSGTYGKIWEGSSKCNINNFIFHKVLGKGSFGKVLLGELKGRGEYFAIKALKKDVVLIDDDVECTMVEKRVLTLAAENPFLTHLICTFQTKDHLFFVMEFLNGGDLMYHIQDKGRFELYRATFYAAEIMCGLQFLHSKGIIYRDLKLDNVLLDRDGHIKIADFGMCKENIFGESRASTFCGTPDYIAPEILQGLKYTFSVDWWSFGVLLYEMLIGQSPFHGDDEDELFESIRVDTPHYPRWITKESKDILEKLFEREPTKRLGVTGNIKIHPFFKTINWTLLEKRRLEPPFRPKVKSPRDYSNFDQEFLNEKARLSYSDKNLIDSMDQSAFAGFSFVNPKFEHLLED
Sequence of PKC beta 2 (P05771 1-673 isoform P05771-2): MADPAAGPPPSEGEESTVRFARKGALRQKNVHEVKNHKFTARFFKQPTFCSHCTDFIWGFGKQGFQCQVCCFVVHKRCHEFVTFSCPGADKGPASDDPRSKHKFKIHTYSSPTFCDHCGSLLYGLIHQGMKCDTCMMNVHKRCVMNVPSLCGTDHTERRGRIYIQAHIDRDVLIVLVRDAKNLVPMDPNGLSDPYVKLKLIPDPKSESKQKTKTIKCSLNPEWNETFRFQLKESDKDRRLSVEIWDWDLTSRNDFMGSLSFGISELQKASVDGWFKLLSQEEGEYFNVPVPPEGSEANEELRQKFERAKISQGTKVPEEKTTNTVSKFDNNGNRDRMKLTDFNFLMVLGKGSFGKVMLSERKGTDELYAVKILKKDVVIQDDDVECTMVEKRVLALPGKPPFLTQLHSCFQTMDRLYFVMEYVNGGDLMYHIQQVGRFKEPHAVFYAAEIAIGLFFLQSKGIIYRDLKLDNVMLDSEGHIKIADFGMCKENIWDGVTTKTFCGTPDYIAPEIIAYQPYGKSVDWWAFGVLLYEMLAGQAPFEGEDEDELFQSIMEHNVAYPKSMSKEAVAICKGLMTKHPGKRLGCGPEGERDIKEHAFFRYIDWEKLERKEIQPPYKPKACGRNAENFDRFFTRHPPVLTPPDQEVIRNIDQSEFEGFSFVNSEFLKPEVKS

Compound: CCCCCCCCCCCCCCCC[N+](C)(C)Cc1ccccc1 [CKC, cetalkonium chloride]
- IC 50 PKC beta 1 [1]: *
- IC 50 PKC delta [2]: *
- IC 50 PKC beta 2 [3]: *
- IC50 [4]: 4.29 µM
